pIC50: −log10 of the molar value.
Target: T1, ileal transporter of the rabbit (RIBAT) (Oryctolagus cuniculus, UniProt Q28727)
T1 construct: contained the total protein-coding region of the RIBAT; expressed in transfected cells; host or cells: CHO cells, stably transfected with pRIBAT8 (pcDNA1neo vector), G418-selected clonal line
T1 sequence (Q28727 1-347): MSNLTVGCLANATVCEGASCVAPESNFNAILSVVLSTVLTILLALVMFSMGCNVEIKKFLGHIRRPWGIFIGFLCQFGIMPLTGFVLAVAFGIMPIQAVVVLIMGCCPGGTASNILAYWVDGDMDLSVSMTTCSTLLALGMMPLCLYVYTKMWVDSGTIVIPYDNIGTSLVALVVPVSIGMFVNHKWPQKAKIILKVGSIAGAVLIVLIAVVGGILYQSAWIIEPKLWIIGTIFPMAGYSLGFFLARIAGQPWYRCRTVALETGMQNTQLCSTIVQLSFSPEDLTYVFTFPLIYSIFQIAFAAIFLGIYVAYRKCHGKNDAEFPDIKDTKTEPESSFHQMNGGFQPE
Test: Inhibition of [24-14C]-taurocholic acid uptake in CHO/pRIBAT8 cells
Assay type: cell-based
Conditions: 21° C., 30 minutes
Description: These were derivatives of the generally known "Chinese hamster ovary" (CHO) cell line, which on account of incorporated expression plasmids additionally produced sodium-dependent bile acid transporters. The first cell line (CHO/pRIBAT8) was in this case the ileal transporter of the rabbit (RIBAT), the second (CHO/pHIBAT8) the ileal transporter of the human (HIBAT) and the third (CHO/pHLBAT5) the hepatic transporter of the human. All plasmids were based on the standard plasmid pCDNA1neo, which as important elements has a cytomegaloviral promoter for the permanent expression of heterologous genes and a gene for the production of cell resistance against the substance G418.
The starting material for the production of the plasmid for the RIBAT-producing cell line (pRIBAT8) was total RNA of the terminal ileum of the rabbit. […]
For the preparation of the genetically modified cell lines, CHO cells were transfected with DNA from pRIBAT8, pHIBAT8 or pHLBAT5 and cells which developed resistance against the selection substance G418 were selectively additionally cultured by addition of the substance to the cell medium. […] They could thereby be easily differentiated from cells without intact bile acid transporters with the aid of a fluorescence microscope. […]

- pIC50: 7.15
Compound: CCCCC1(CC)CS(=O)(=O)c2cc(O[C@@H]3O[C@H](C(=O)O)[C@@H](O)[C@H](O)[C@H]3O)ccc2C(c2ccccc2)N1 (stereo partly shown) [Example 3]

Reference: US6020330A, “Hypolipidemic 1,4-benzothiazepine-1,1-dioxides” (Hoechst Aktiengesellschaft, priority 1997, dated 2000)
